From patent publication EP1200406B1, “CYCLIC AMIDES AND IMIDES HAVING SELECTIVE ANTAGONIST ACTIVITY AT ALPHA-1D ADRENERGIC RECEPTOR” (RECORDATI INDUSTRIA CHIMICA E FARMACEUTICA S.p.a., priority 1999, dated 2001)
Read-outs that look alike come from different tables or passages of the source.

Tests used:
[1] = molecular target: T1, human recombinant α1b adrenoceptor (Homo sapiens, UniProt P35368); assay: Radioligand binding ([3H]prazosin) on membranes of CHO cells expressing cloned α1b adrenoceptor; details: human cloned receptor, CHO cell membranes, 0.2 nM [3H]prazosin; read-out: Affinity (Ki) α1b
T1 construct: expressed in transfected cells; host or cells: CHO cells (membranes)
T1 sequence (P35368 1-520): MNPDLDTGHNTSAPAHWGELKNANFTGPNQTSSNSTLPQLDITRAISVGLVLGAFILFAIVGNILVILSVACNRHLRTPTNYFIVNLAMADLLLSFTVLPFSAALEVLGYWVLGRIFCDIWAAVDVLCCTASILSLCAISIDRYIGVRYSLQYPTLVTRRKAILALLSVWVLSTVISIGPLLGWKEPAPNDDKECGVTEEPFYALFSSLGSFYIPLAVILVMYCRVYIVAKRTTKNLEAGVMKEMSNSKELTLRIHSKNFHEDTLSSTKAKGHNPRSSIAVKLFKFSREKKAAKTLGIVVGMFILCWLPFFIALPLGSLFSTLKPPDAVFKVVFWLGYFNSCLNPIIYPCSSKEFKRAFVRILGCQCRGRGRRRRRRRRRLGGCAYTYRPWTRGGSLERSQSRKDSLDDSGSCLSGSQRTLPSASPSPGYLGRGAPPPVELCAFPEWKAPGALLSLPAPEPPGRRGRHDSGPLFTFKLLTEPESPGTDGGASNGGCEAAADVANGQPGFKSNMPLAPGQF
Experimental: (§1) The determination of affinity for cloned subtypes of human α1 adrenergic receptors was performed in membranes from CHO cells (chinese hamster ovary cells) transfected by electroporation with DNA expressing the genes encoding each α1-adrenoceptor subtype, namely α1a, α1b and α1d.. Cloning and stable expression of the human α1-adrenoceptor gene were performed as previously described (Testa et al., Pharmacol. Comm. 6, 79-86 (1995)). CHO cell membranes were incubated in […] Tris pH 7.4 with 0.2 nM [^3H]prazosin, in a final volume of 1.02 ml for 30 minutes at 25°C, in the absence or presence of competing drugs (1 pM-10 µM). Non-specific binding was determined in the presence of 10 µM phentolamine. Incubation was stopped by addition of ice-cold Tris buffer and rapid filtration through 0.2% polyethyleneimine pretreated Schleicher & Schuell GF52 filters. Genomic clone G-21 coding for the human 5-HT1A-serotoninergic receptor was stably transfected in a human cell line (HeLa) (Fargin et al., J. Biol. Chem. 284, 14848-14852 (1989)). The HeLa cells were grown as monolayers in Dulbecco's modified Eagle's medium (DMEM), supplemented with 10% foetal calf serum and gentamicin (100 µg/ml), 5% CO2, at 37°C. The cells were detached from the growth flask at 95% confluence by a cell scraper and were lysed in ice-cold 5 mM Tris and 5-mM EDTA buffer (pH 7.4). The homogenates were centrifuged at 40000 x g x 20 minutes and the membranes were re-suspended in a small volume of ice-cold 5 mM Tris and 5-mM EDTA buffer (pH 7.4) and immediately frozen and stored at -70°C until use. On the experiment day, the cell membranes were re-suspended in a buffer containing 50 mM Tris (pH 7.4), 2.5 mM MgCl2, 10 µM pargyline (Fargin et al., Nature 335, 358-360 (1988)). […] The incubation was stopped by addition of ice-cold Tris buffer and rapid filtration through 0.2%-polyethyleneimine-pretreated Schleicher & Schuell filters. The inhibition of specific binding of the radioligands by the drugs was analysed to estimate the IC50 value by using the non-linear curve-fitting programme Allfit (De Lean et al., Am. J. Physiol. 235, E97-E102 (1978)). The IC50 value was converted to an affinity constant (Ki) by the equation of Cheng & Prusoff (Biochem. Pharmacol. 22, 3099-3108 (1973)). Data were expressed as mean of Ki.

[2] = molecular target: T2, human recombinant α1a adrenoceptor (Homo sapiens, UniProt P35348); assay: Radioligand binding ([3H]prazosin) on membranes of CHO cells expressing cloned α1a adrenoceptor; details: read-out: Affinity (Ki) α1a
T2 construct: expressed in transfected cells; host or cells: CHO cells (membranes)
T2 sequence (P35348 1-466): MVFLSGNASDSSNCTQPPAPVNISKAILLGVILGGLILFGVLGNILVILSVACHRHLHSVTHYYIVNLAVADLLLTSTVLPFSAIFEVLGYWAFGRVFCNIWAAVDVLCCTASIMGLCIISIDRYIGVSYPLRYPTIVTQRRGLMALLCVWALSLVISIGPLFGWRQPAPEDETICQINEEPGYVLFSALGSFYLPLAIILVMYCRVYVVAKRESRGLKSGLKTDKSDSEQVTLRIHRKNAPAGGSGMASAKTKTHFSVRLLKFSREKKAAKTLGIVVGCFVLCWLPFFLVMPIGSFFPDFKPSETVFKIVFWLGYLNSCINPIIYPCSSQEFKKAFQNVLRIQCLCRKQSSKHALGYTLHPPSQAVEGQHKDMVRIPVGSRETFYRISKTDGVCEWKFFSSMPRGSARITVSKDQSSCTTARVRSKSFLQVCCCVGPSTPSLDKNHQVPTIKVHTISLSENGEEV
Experimental: as §1, with “Genomic clone G-21 coding for the human 5-HT1A-serotoninergic receptor was stably transfected in a human cell line (HeLa) (Fargin et al., J. Biol. Chem. 284, 14848-14852 (1989)).” left out

[3] = human cloned receptor, CHO cell membranes, 0.2 nM [3H]prazosin

| SMILES | Ki [1] [nM] | Ki [2, 3] [nM] | Ki [2] [nM] |
| --- | --- | --- | --- |
| Cc1ccc(C)c(N2CCN(CCN3C(=O)CC4(CCCC4)CC3=O)CC2)c1 [Example 5, 8-{2-[4-(2,5-Dimethylphenyl)-1-piperazinyl]-ethyl}-8-azaspiro[4.5]decane-7,9-dione] | 168 | 119 | – |
| O=C1CC2(CCCC2)C(=O)N1CCN1CCN(c2cc(Cl)ccc2Cl)CC1 [Example 14, 2-{2-[4-(2,5-Dichlorophenyl)-1-piperazinyl]-ethyl}-2-azaspiro[4.4]nonane-1,3-dione] | 83.6 | 68.3 | – |
| O=C1CC2(CCCC2)CC(=O)N1CCN1CCN(c2cc(Cl)ccc2Cl)CC1 [Example 1, 8-{2-[4-(2,5-Dichlorophenyl)-1-piperazinyl]-ethyl}-8-azaspiro[4.5]decane-7,9-dione] | 9.9 | – | – |
| CC(CN1CCN(c2cc(Cl)ccc2Cl)CC1)N1C(=O)CC2(CCCC2)CC1=O (centres unmarked) [Example 16, 8-{2-[4-(2,5-Dichlorophenyl)-1-piperazinyl]-1-methylethyl}-8-azaspiro[4.5]decane-7,9-dione] | 13.1 | 187 | – |
| N#Cc1ccc(Cl)cc1N1CCN(CCN2C(=O)CC3(CCCC3)CC2=O)CC1 [Example 8, 8-{2-[4-(5-Chloro-2-cyanophenyl)-1-piperazinyl]-ethyl}-8-azaspiro[4.5]decane-7,9-dione] | 17 | 503 | – |
| O=C1CCCC(=O)N1CCN1CCN(c2cc(Cl)ccc2Cl)CC1 [Example 2, 1-{2-[4-(2,5-Dichlorophenyl)-1-piperazinyl]-ethyl}-piperidinyl-2,6-dione] | 54.1 | 77.9 | – |
| O=C1CC2(CCCC2)CC(=O)N1CCN1CCN(c2cc(F)ccc2Cl)CC1 [Example 9, 8-{2-[4-(2-Chloro-5-fluorophenyl)-1-piperazinyl]-ethyl}-8-azaspiro[4.5]decane-7,9-dione] | 10.1 | 108 | – |
| O=C1CC2(C=CN1CCN1CCN(c3cc(Cl)ccc3Cl)CC1)CCCC2 [Example 20, 8-{2-[4-(2,5-Dichlorophenyl)-1-piperazinyl]-ethyl}-8-azaspiro[4.5]dec-9,10-en-7-one] | 15.8 | – | 27.2 |
| O=C1CC2(CCCC2)CCN1CCN1CCN(c2cc(F)c(F)cc2F)CC1 [Example 24, 8-{2-[4-(2,4,5-Trifluorophenyl)-1-piperazinyl]-ethyl}-8-azaspiro[4.5]decane-7-one] | 22.7 | 706 | – |
| CCC1(C)CC(=O)N(CCN2CCN(c3cc(Cl)ccc3Cl)CC2)C(=O)C1 [Example 13, 1-{2-[4-(2,5-Dichlorophenyl)-1-piperazinyl]-ethyl}-4-ethyl-4-methylpiperidinyl-2,6-dione] | 43.4 | 59.8 | – |
| O=C1CC2(CCCC2)CC(=O)N1CCN1CCN(c2cc(C(F)(F)F)ccc2F)CC1 [Example 6, 8-{2-[4-(2-Fluoro-5-trifluoromethylphenyl)-1-piperazinyl]-ethyl}-8-azaspiro[4.5]decane-7,9-dione] | > 1000 | > 1000 | – |
| O=C1CC2(CCCC2)CC(=O)N1CCN1CCC(c2cc(Cl)ccc2Cl)CC1 [Example 17, 8-{2-[4-(2,5-Dichlorophenyl)-1-piperidinyl]-ethyl}-8-azaspiro[4.5]decane-7,9-dione] | 37.6 | 119 | – |

The next lines start with results.

| Ki [1] [nM] | Ki [2, 3] [nM] | SMILES | Ki [2] [nM] |
| --- | --- | --- | --- |
| 47.5 | 114 | O=C1CC2(CCCC2)CC(=O)N1CCN1CCN(c2cc(Br)ccc2Br)CC1 [Example 7, 8-{2-[4-(2,5-Dibromophenyl)-1-piperazinyl]-ethyl}-8-azaspiro[4.5]decane-7,9-dione] | – |
| 915 | 786 | CN(CCN1C(=O)CC2(CCCC2)CC1=O)CCN(C)c1cc(Cl)ccc1Cl [Example 18, N-(2,5-Dichlorophenyl)-N'-{2-(7,9-dioxo-8-azaspiro[4.5]decane-8-yl)-ethyl}-N,N'-dimethyl-1,2-diaminoethane] | – |
| 79.6 | 120 | O=C1CC2(CCC2)CC(=O)N1CCN1CCN(c2cc(Cl)ccc2Cl)CC1 [Example 15, 7-{2-[4-(2,5-Dichlorophenyl)-1-piperazinyl]-ethyl}-7-azaspiro[3.5]nonane-6,8-dione] | – |
| 448 | 479 | O=C1CC2(CCCC2)CC(=O)N1CCN1CCN(c2cc(I)ccc2Cl)CC1 [Example 10, 8-{2-[4-(2-Chloro-5-iodophenyl)-1-piperazinyl]-ethyl}-8-azaspiro[4.5]decane-7,9-dione] | – |
| 52.9 | 331 | O=C1CC2(CCCCC2)CC(=O)N1CCN1CCN(c2cc(Cl)ccc2Cl)CC1 [Example 11, 3-{2-[4-(2,5-Dichlorophenyl)-1-piperazinyl]-ethyl}-3-azaspiro[5.5]undecane-2,4-dione] | – |
| 119 | > 1000 | Cc1ccc(F)c(N2CCN(CCN3C(=O)CC4(CCCC4)CC3=O)CC2)c1 [Example 4, 8-{2-[4-(2-Fluoro-5-methylphenyl)-1-piperazinyl]-ethyl}-8-azaspiro[4.5]decane-7,9-dione] | – |
